Data published in US20210177879A1, “VITAMIN D RECEPTOR AGONIST” (Guanghzou University of Chinese Medicine, priority 2018, published 2021).

Tests used:
Type in all cases: in vivo, Balb/c mice
[1] = tested on: AOM/DSS colon cancer model; assay: AOM/DSS colon cancer model, Experiment 1 (body weight, anal prolapse, organ coefficient, colon and tumor indexes)
Protocol: (§1) Experimental method: 90 Balb/c mice of 6-8 weeks were purchased from the Experimental Animal Center in Guangzhou University of Chinese Medicine, weighed about 18-22 g, and subjected to adaptive feeding for 10 days. Modeling was divided into three stages. In the first stage, except for the normal group of animals being given saline injection, each of the other animals were intraperitoneally injected with a carcinogen AOM (10 mg/kg), and given free access to 2% DSS water from the next day for 7 days, and then given access to replaced regular drinking water for 14 days. In the second stage, the animals were given free access to 2% DSS water for 10 days, and then given access to replaced regular drinking water for 14 days. In the third stage, the animals were given free access to 2% DSS water for 10 days, and then given access to replaced regular drinking water for 11 days. The normal group was given access to regular drinking water throughout the experiment. The diet, water drinking and body weights of the animals were recorded daily and DAI scores were made, and the animals were killed and harvested at the 10th week. In this experiment, the animals were divided into groups and administrated on the first day of a modeling period of the second stage, and the total number of groups was set to 5 groups. The first group was a blank control group (Normal), in which a total of 12 animals were given access to drinking water by gavage; the second group was a model group (AOM/DSS), in which a total of 22 animals were given access to drinking water by gavage; the third group was a positive drug control group (5-ASA+AOM/DSS), in which a total of 22 animals were given access to 100 mg/kg of mesalazine (5-ASA) by gavage; and the fourth and fifth groups were monotropein-intervening groups (Mo+AOM/DSS), which were a high dose of 8 mg/kg and a low dose of 2 mg/kg, respectively, with 17 animals in each group. Dosing was conducted daily until dissection.
(1) The calculation formula of a DAI score: DAI value=(score of weight loss+score of stool trait+score of blood in stool)/3.
The animals were anesthetized and harvested, and the liver, spleen, thymus and testis were weighed to calculate the organ coefficient; the colon tissue was taken, measured with a ruler for the length, and measured with a vernier caliper for the thickness, and the number and size of tumors and degree of colonic ulceration and adhesion were recorded; respective tissues were cut into small pieces and fixed, and the remaining tissues were frozen and stored; and the fixed tissues were used for HE staining and immunohistochemistry.

intestinal permeability = assay: Determination of intestinal permeability in serum with FITC-dextran; conditions: after third stage of modeling; monotropein high and low doses, 5-ASA 100 mg/kg
Protocol: Experimental method: 90 Balb/c mice of 6-8 weeks were purchased from the Experimental Animal Center in Guangzhou University of Chinese Medicine, weighed about 18-22 g, and subjected to adaptive feeding for 10 days. Modeling was divided into three stages. In the first stage, except for the normal group of animals being given saline injection, each of the other animals were intraperitoneally injected with a carcinogen AOM (10 mg/kg), and given free access to 2% DSS water from the next day for 7 days, and then given access to replaced regular drinking water for 14 days. In the second stage, the animals were given free access to 2% DSS water for 10 days, and then given access to replaced regular drinking water for 14 days. In the third stage, the animals were given free access to 2% DSS water for 10 days, and then given access to replaced regular drinking water for 11 days. […] The diet, water drinking and body weights of the animals were recorded daily and DAI scores were made, and the animals were killed and harvested at the 10th week. […] 25 μl of serum was taken and added with 100 μl PBS, and determined on a microplate reader for its fluorescence intensity, where the wavelength of the exciting light was 480 nm, and the wavelength of the emitting light was 520 nm. A standard curve was made and the sample concentration was calculated.

IL-6, IL-10, IL-1β = assay: Determination of cytokines in intestinal tumor tissues by Elisa; conditions: vs model group; high-dose monotropein (8 mg/kg) and positive drug 5-ASA (100 mg/kg)
Protocol: as §1, with “The first group was a blank control group (Normal), in which a total of 12 animals were given access to drinking water by gavage; the second group was a model group (AOM/DSS), in which a total of 22 animals were given access to drinking water by gavage; the third group was a positive drug control group (5-ASA+AOM/DSS), in which a total of 22 animals were given access to 100 mg/kg of mesalazine (5-ASA) by gavage; and the fourth and fifth groups were monotropein-intervening groups (Mo+AOM/DSS), which were a high dose of 8 mg/kg and a low dose of 2 mg/kg, respectively, with 17 animals in each group. Dosing was conducted daily until dissection.” left out
The intestinal tumor tissues frozen and stored at −80° C. were taken and homogenized, and the homogenate was determined with a BCA kit for the total protein concentration thereof. The homogenate was diluted by 20 times and then determined by Elisa method for cytokines: IL-6, IL-10, and IL-1β. […]

[2] = tested on: peripheral blood macrophages; assay: Typing of peripheral blood macrophages by flow cytometry; conditions: compared with normal group
Protocol: as §1, with “The first group was a blank control group (Normal), in which a total of 12 animals were given access to drinking water by gavage; the second group was a model group (AOM/DSS), in which a total of 22 animals were given access to drinking water by gavage; the third group was a positive drug control group (5-ASA+AOM/DSS), in which a total of 22 animals were given access to 100 mg/kg of mesalazine (5-ASA) by gavage; and the fourth and fifth groups were monotropein-intervening groups (Mo+AOM/DSS), which were a high dose of 8 mg/kg and a low dose of 2 mg/kg, respectively, with 17 animals in each group.” left out, “dissection. […]” for “dissection.”

Structure (SMILES): Nc1ccc(O)c(C(=O)O)c1 [5-ASA, mesalazine, reference compound]
- spleen enlargement caused by AOM/DSS modeling (organ coefficient) ([1]; monotropein high (8 mg/kg) and low (2 mg/kg) doses, 5-ASA 100 mg/kg): has no such effect
- anal prolapse occurrence at the third stage of modeling ([1]; per group, monotropein 8 mg/kg and 2 mg/kg groups (17 animals each), 5-ASA 100 mg/kg (22 animals), gavage daily, model group 8-12): 8-12 animals
- intestinal permeability (FITC-dextran in serum) vs model group (intestinal permeability): not statistically significant
- level of IL-10 in tumor tissues (IL-6, IL-10, IL-1β): no significant differences
- M1/M2 ratio of peripheral blood macrophages [2]: significantly reduced
